Data from PubChem BioAssay AID1259407 (Chemical Carcinogenesis Research Information System (CCRIS), 2018).
The source made the active and inactive calls. No rule for the calls is given here.

Tested on: CCRIS mutagenicity, Ames/micronucleus/aberration tests
Test: CCRIS mutagenicity studies
[1] = Test System: AMES SALMONELLA TYPHIMURIUM, Strain/Indicator: TA98, Metabolic Activation: NONE, Method: PREINCUBATION
[2] = Test System: AMES SALMONELLA TYPHIMURIUM, Strain/Indicator: TA100, Metabolic Activation: NONE, Method: PREINCUBATION

Measured: mutagenic call

C=CC(=O)OCCOC(=O)C=C
inactive: Test System: AMES SALMONELLA TYPHIMURIUM, Strain/Indicator: TA98, Metabolic Activation: HAMSTER, LIVER, S-9, AROCLOR 1254, Method: STANDARD PLATE inactive; negative | Test System: AMES SALMONELLA TYPHIMURIUM, Strain/Indicator: TA98, Metabolic Activation: NONE, Method: STANDARD PLATE inactive; negative | Test System: AMES SALMONELLA TYPHIMURIUM, Strain/Indicator: TA98, Metabolic Activation: RAT, LIVER, S-9, SODIUM PHENOBARBITAL, Method: STANDARD PLATE inactive; negative | Test System: AMES SALMONELLA TYPHIMURIUM, Strain/Indicator: TA100, Metabolic Activation: HAMSTER, LIVER, S-9, AROCLOR 1254, Method: STANDARD PLATE inactive; negative | Test System: AMES SALMONELLA TYPHIMURIUM, Strain/Indicator: TA100, Metabolic Activation: NONE, Method: STANDARD PLATE inactive; negative | Test System: AMES SALMONELLA TYPHIMURIUM, Strain/Indicator: TA100, Metabolic Activation: RAT, LIVER, S-9, SODIUM PHENOBARBITAL, Method: STANDARD PLATE inactive; negative | Test System: AMES SALMONELLA TYPHIMURIUM, Strain/Indicator: TA1535, Metabolic Activation: HAMSTER, LIVER, S-9, AROCLOR 1254, Method: STANDARD PLATE inactive; negative | Test System: AMES SALMONELLA TYPHIMURIUM, Strain/Indicator: TA1535, Metabolic Activation: NONE, Method: STANDARD PLATE inactive; negative | Test System: AMES SALMONELLA TYPHIMURIUM, Strain/Indicator: TA1535, Metabolic Activation: RAT, LIVER, S-9, SODIUM PHENOBARBITAL, Method: STANDARD PLATE inactive; negative | Test System: AMES SALMONELLA TYPHIMURIUM, Strain/Indicator: TA1537, Metabolic Activation: HAMSTER, LIVER, S-9, AROCLOR 1254, Method: STANDARD PLATE inactive; negative | Test System: AMES SALMONELLA TYPHIMURIUM, Strain/Indicator: TA1537, Metabolic Activation: NONE, Method: STANDARD PLATE inactive; negative | Test System: AMES SALMONELLA TYPHIMURIUM, Strain/Indicator: TA1537, Metabolic Activation: RAT, LIVER, S-9, SODIUM PHENOBARBITAL, Method: STANDARD PLATE inactive; negative | Test System: AMES SALMONELLA TYPHIMURIUM, Strain/Indicator: TA1538, Metabolic Activation: NONE, Method: STANDARD PLATE inactive; negative | Test System: AMES SALMONELLA TYPHIMURIUM, Strain/Indicator: TA1538, Metabolic Activation: RAT, LIVER, S-9, AROCLOR 1254, Method: STANDARD PLATE inactive; negative | Test System: AMES SALMONELLA TYPHIMURIUM, Strain/Indicator: TA1538, Metabolic Activation: RAT, LIVER, S-9, SODIUM PHENOBARBITAL, Method: STANDARD PLATE inactive; negative

O=C(O)CNC(=O)c1ccc([N+](=O)[O-])cc1
inactive: Test System: AMES SALMONELLA TYPHIMURIUM, Strain/Indicator: TA98, Metabolic Activation: HAMSTER, LIVER, S-9, AROCLOR 1254 (30%), Method: PREINCUBATION inactive; negative | Test System: AMES SALMONELLA TYPHIMURIUM, Strain/Indicator: TA98, Metabolic Activation: RAT, LIVER, S-9, AROCLOR 1254 (30%), Method: PREINCUBATION inactive; negative | Test System: AMES SALMONELLA TYPHIMURIUM, Strain/Indicator: TA100, Metabolic Activation: HAMSTER, LIVER, S-9, AROCLOR 1254 (5, 10 OR 30%), Method: PREINCUBATION inactive; negative | Test System: AMES SALMONELLA TYPHIMURIUM, Strain/Indicator: TA100, Metabolic Activation: RAT, LIVER, S-9, AROCLOR 1254 (5, 10 OR 30%), Method: PREINCUBATION inactive; negative | Test System: AMES SALMONELLA TYPHIMURIUM, Strain/Indicator: TA1535, Metabolic Activation: HAMSTER, LIVER, S-9, AROCLOR 1254 (5, 10 OR 30%), Method: PREINCUBATION inactive; negative | Test System: AMES SALMONELLA TYPHIMURIUM, Strain/Indicator: TA1535, Metabolic Activation: NONE, Method: PREINCUBATION inactive; negative | Test System: AMES SALMONELLA TYPHIMURIUM, Strain/Indicator: TA1535, Metabolic Activation: RAT, LIVER, S-9, AROCLOR 1254 (5, 10 OR 30%), Method: PREINCUBATION inactive; negative
active: [1] active; positive | [2] active; positive | Test System: AMES SALMONELLA TYPHIMURIUM, Strain/Indicator: TA1538, Metabolic Activation: NONE, Method: PREINCUBATION active; positive

O[C@H]1[C@H](O)COC(NCCc2c[nH]c3ccccc23)[C@@H]1O (some centres undefined)
active: Test System: AMES SALMONELLA TYPHIMURIUM, Strain/Indicator: TA100, Metabolic Activation: NONE, Method: LIQUID INCUBATION active; positive

CC1(C)CC(N)CC(C)(CN)C1 (centres undefined)
inactive: [1] inactive; negative | Test System: AMES SALMONELLA TYPHIMURIUM, Strain/Indicator: TA98, Metabolic Activation: RAT, LIVER, S-9, PCB, Method: PREINCUBATION inactive; negative | [2] inactive; negative | Test System: AMES SALMONELLA TYPHIMURIUM, Strain/Indicator: TA100, Metabolic Activation: RAT, LIVER, S-9, PCB, Method: PREINCUBATION inactive; negative

Oc1c(Cl)c(Cl)c(O)c(Cl)c1Cl
active: Test System: CHINESE HAMSTER V79 CELLS, Strain/Indicator: V79 CELLS (HPRT)/6-THIOGUANINE, Metabolic Activation: NONE, Method: PREINCUBATION active; positive | Test System: CHINESE HAMSTER V-79, Strain/Indicator: V-79/6-THIOGUANINE, Metabolic Activation: NONE, Method: SUSPENSION/PLATE active; positive | Test System: UDS HUMAN FIBROBLASTS, Strain/Indicator: THY INCORP, Metabolic Activation: NONE, Method: AUTORADIOGRAPHY active; positive
inactive: Test System: CHINESE HAMSTER V-79, Strain/Indicator: V-79/OUABAIN, Metabolic Activation: NONE, Method: SUSPENSION/PLATE inactive; negative
